US20220064214A1, “NOVEL PEPTIDES AND USES THEREOF” (CENNA BIOSCIENCES INC., priority 2019, published 2022)
“And” between values parts separate entries of the source, which are not always exact repeats. Equal values may be shown once. “Also recorded” adds a separate entry of the source. Read-outs that look alike come from different tables or passages of the source. Marks after values point to notes of the source that are not given here. Square brackets hold non-standard residues; d marks the D form. Peptide text beside a SMILES is read from it.

Key:
[1] = Pharmacokinetics study in rats, plasma; assay type: in vivo; conditions: rat; for plasma concentration: individual rats
Method: (§1) An in-vivo study was carried out in rats to determine the pharmacokinetics (PK) of peptides P8, 8M1D and 8M2D in plasma and CSF. Each peptide was assessed through two dosage routes, intravenous (IV) and subcutaneous (SC). Three rats were assigned to each dose group with each peptide. Total of twelve rats per peptide were used.
Blood was collected through jugular vein cannulas, and the samples were collected into tubes with K2EDTA. After centrifuging at a temperature of 2 to 8° C. at 4,000×g for 5 minutes, the resulting plasma was split into equal aliquots, frozen, and stored at −60 to −80° C. One aliquot was for PK analysis and the other was for Aβ analysis (see Example 4).

[2] = Pharmacokinetics study in rats, CSF; assay type: in vivo; parameters: CSF concentration, Mean IV / CSF concentration, Mean SC: unit not given here; conditions: rat; for CSF concentration, Mean IV: 10 mg/kg IV; for CSF concentration, Mean SC: 10 mg/kg SC
Method: as §1
CSF collection was performed by first anesthetizing animals at specified time points (see Table 5) with a mixture of 80 mg/kg ketamine and 8 mg/kg xylazine. The depth of anesthesia was monitored by toe pinches. CSF was collected via the cisterna magna (˜0.05 mL), and it was split into equal aliquots, frozen, and stored at −60 to −80° C.

[3] = PK analysis of 8M2D in transgenic mice (APPSWE), plasma; conditions: mouse, in vivo, sc, 10 mg/kg; for AUC(0-t): read-out: AUClast; for CL/F: read-out: Cl/F; for Cmax: read-out: Cmax; for Tmax: read-out: Tmax
Description: Pharmacokinetics (PK) of 8M2D was further analyzed with various doses at days 1 and 13 in transgenic mice (APPSWE (B6; SJL 2576 Kha; Taconic)). See Hsiao et al., Correlative memory deficits, Aβ elevation, and amyloid plaques in transgenic mice. Science 274:99-102 (1996); and Haugabook et al., Reduction of Abeta accumulation in the Tg2576 animal model of Alzheimer's disease after oral administration of the phosphatidyl-inositol kinase inhibitor wortmannin. Faseb J 15:16-18 (2001).

Structure (SMILES): CC(=O)N[C@H](CC(=O)O)C(=O)N[C@@H](CCC(=O)O)C(=O)N[C@@H](CCC(=O)O)C(=O)N[C@@H](CCC(=O)O)C(=O)N[C@@H](CC(=O)O)C(=O)N[C@@H](CCC(=O)O)C(=O)N[C@@H](CCC(=O)O)C(=O)N[C@@H](CC(C)C)C(N)=O [8M2D, Ac-dEEEDEEL-NH2] (Ac-[dD]EEEDEEL-NH2)
- time after dosing at which detectable in plasma ([1]; 10 mg/kg IV and SC): ≥ 6 h
- exposure in plasma compared with P8 (in words) ([1]; 10 mg/kg IV and SC, at Cmax and most subsequent time points): better exposures than P8
- plasma concentration ([1]; 10 mg/kg IV, 0 hr (pre-dose)): BQL
- plasma concentration ([1]; 10 mg/kg IV, 0.167 hr, 10 mg/kg, in ng/mL (unit assumed)): 20,900 and 21,000 and 23,400
- plasma concentration ([1]; 10 mg/kg IV, 0.5 hr, 10 mg/kg, in ng/mL (unit assumed)): 5,620 and 5,680 and 5,940
- plasma concentration ([1]; 10 mg/kg IV, 1 hr, 10 mg/kg, in ng/mL (unit assumed)): 1,450 and 1,040 and 1,190
- plasma concentration ([1]; 10 mg/kg IV, 2 hr, 10 mg/kg, in ng/mL (unit assumed)): 417 and 114 and 136
- plasma concentration ([1]; 10 mg/kg IV, 4 hr, 10 mg/kg): 10.2 and 7.54 ^b and 8.29 ^b
- plasma concentration ([1]; 10 mg/kg IV, 6 hr, 10 mg/kg): 2.09 ^b and 1.81 ^b and BQL
- plasma concentration ([1]; 10 mg/kg IV, 8 hr): BQL
- plasma concentration ([1]; 10 mg/kg IV, 12 hr): BQL
- plasma concentration ([1]; 10 mg/kg IV, 24 hr): BQL
- plasma concentration ([1]; 10 mg/kg SC, 0 hr (pre-dose)): BQL
- plasma concentration ([1]; 10 mg/kg SC, 0.167 hr, 10 mg/kg, in ng/mL (unit assumed)): 16,200 and 13,500 and 13,800 ^a
- plasma concentration ([1]; 10 mg/kg SC, 0.5 hr, 10 mg/kg, in ng/mL (unit assumed)): 9,030 and 9,010 and 7,190
- plasma concentration ([1]; 10 mg/kg SC, 1 hr, 10 mg/kg, in ng/mL (unit assumed)): 3,250 and 4,160 and 3,110
- plasma concentration ([1]; 10 mg/kg SC, 2 hr, 10 mg/kg, in ng/mL (unit assumed)): 609 and 987 and 1,040
- plasma concentration ([1]; 10 mg/kg SC, 4 hr, 10 mg/kg, in ng/mL (unit assumed)): 59.2 and 82.8 and 125
- plasma concentration ([1]; 10 mg/kg SC, 6 hr, 10 mg/kg): 3.77 ^b and 9.84 ^b and 21.6
- plasma concentration ([1]; 10 mg/kg SC, 8 hr, 10 mg/kg): 1.61 ^b and 4.37 ^b and 5.19 ^b
- plasma concentration ([1]; 10 mg/kg SC, 12 hr): BQL
- plasma concentration ([1]; 10 mg/kg SC, 24 hr): BQL
- exposure in CSF compared with P8 (in words) ([2]; 10 mg/kg IV and SC, at Cmax and most subsequent time points, 10 mg/kg): better exposures than P8; also recorded: higher exposure than P8
- CSF concentration, Mean IV ([2]; 0 hr): 0
- CSF concentration, Mean IV ([2]; 0.5 hr): 104
- CSF concentration, Mean IV ([2]; 1 hr): 55.6
- CSF concentration, Mean IV ([2]; 2 hr): 68
- CSF concentration, Mean IV ([2]; 4 hr): 11.5
- CSF concentration, Mean IV ([2]; 8 hr): 1.75
- CSF concentration, Mean IV ([2]; 12 hr): 0.378
- CSF concentration, Mean IV ([2]; 24 hr): 1.2
- CSF concentration, Mean SC ([2]; 0 hr): 0
- CSF concentration, Mean SC ([2]; 0.5 hr): 59
- CSF concentration, Mean SC ([2]; 1 hr): 53.4
- CSF concentration, Mean SC ([2]; 2 hr): 172
- CSF concentration, Mean SC ([2]; 4 hr): 13.3
- CSF concentration, Mean SC ([2]; 8 hr): 15.3
- CSF concentration, Mean SC ([2]; 12 hr): 0.113
- CSF concentration, Mean SC ([2]; 24 hr): 0
- AUC(0-t) ([3]; Day 1, 10 mg/kg): 12800 ng·h/mL
- CL/F ([3]; Day 1, 10 mg/kg): 13 mL/min/kg
- Cmax ([3]; Day 1, 10 mg/kg): 14400 ng/mL
- Tmax ([3]; Day 1, 10 mg/kg): 10.2 min
- Vd/F ([3]; Day 1, 10 mg/kg, read-out: Vz/F): 8.84 L/kg
- half-life ([3]; Day 1, 10 mg/kg, read-out: t1/2 (converted)): 474 min
- AUC(0-t) ([3]; Day 13, 10 mg/kg): 11600 ng·h/mL
- CL/F ([3]; Day 13, 10 mg/kg): 14.1 mL/min/kg
- Cmax ([3]; Day 13, 10 mg/kg): 12400 ng/mL
- Tmax ([3]; Day 13, 10 mg/kg): 10.2 min
